Experimental findings from US10004750B2, “Salt of cephalosporin derivative, its crystalline solid and a method of manufacturing thereof” (Shionogi & Co., Ltd., priority 2014, dated 2018) are described below.

What all share (type): physicochemical
Series [1] in a line: pKa measurement by capillary electrophoresis method (CE method). The note with it: 25° C., pH 2.5 to 11.5 buffer. An excerpt: (Measuring Method by Capillary Electrophoresis Method, CE Method)
It is a method by using Capillary Zone Electrophoresis technique and a method of separation by using free electrophoresis of each sample component in a buffer including electrolyte.
After injecting a compound solution to fused silica capillary filling a buffer adjusting the pH 2.5 to 11.5, high voltage (Inlet side +, Outlet side −) is on capillary, and then a compound moves at a speed reflecting an ionized state at the pH of the buffer (a compound having (+) charge moves quickly, and a compound having (−) charged moves slowly). pKas was calculated by plotting the difference between the migration time of the compound and that of a neutral molecule (DMSO) against pH, and fitting. […]

Series [2] can be described thus: Solubility of the compound (IA) in water.
Series [3] in a line: Solubility of sodium salt in various aqueous media. The method, then:
To anisole (1.54 L) cooling in dry ice-ethanol bath was added aluminium chloride (495.4 g, 3.71 mol) followed by dichloromethane. 610 g of the crude product containing the compound 8 obtained by Step 1 was dissolved in a mixed solution of dichloromethane (0.51 L) and anisole (1.03 L) and spent 1 hour adding dropwise to the above aluminium chloride solution re-cooling to −40° C. The container used for the dropwise was washed with a mixed solution of dichloromethane (0.36 L) and anisole (0.51 L) and the wash fluid was added to the reaction solution. The reaction solution was stirred at −20° C. for 2 hours, and added to a mixed solution of ethanol (7.1 L), 1 mol/L hydrochloric acid (7.1 L) while stirring under cooling in ice-bath. The mixed solution was stirred for 30 minutes under ice-cooling, dichloromethane (5.14 L) and saturated brine (257 mL) was added, the separated aqueous layer was washed with dichloromethane (5.14 L). The organic layer was extracted with a mixture of water (2.57 L) and saturated brine (100 mL), and the separated aqueous layer was combined with the previous aqueous layer. The aqueous layer was stirred under cooling in ice-bath, and 2 mol/L sodium hydroxide aqueous solution was added to adjust pH to 1.5 and the solution was left to stand. The aqueous layer was concentrated and purified by HP20SS column (eluent: 13% acetonitrile water). Sodium bicarbonate (8.75 g) was added to the collected fractions containing the target product and the resulting solution was concentrated under reduced pressure until 500 mL. The solution was diluted by adding water (1.6 L) and filtered with cotton plug, and then the filtrate was lyophilized to yield the compound 9 (77.8 g). • Elemental analysis: (calculated as C30H33ClN7O10S2Na 4.5H2O) • Calculated: C; 42.13, H; 4.95, N; 11.46, S; 7.50, Cl; 4.14, Na; 2.69(%) • Measured: C; 42.22, H; 4.88, N; 11.24, S; 7.01, Cl; 4.04, Na; 2.74(%) The solubility of the obtained compound 9 in various aqueous medium (water for injection, saline, dextrose solution) was all 100 mg/mL or more, and they are very high solubility.

The nature of series [4]: Dynamic vapor sorption measurement. Particulars: 25° C. The method, then:
Dynamic vapor sorption (DVS) is a gravimetric technique that measures how quickly and how much of water is absorbed and desorbed by a sample in several relative humidity (RH). A degree of water absorption is calculated by weight change in controlled humidity increased from 0% RH to 95% RH stepped 5% or 10%. Similarly, a degree of water desorption is calculated in humidity decreased from 95% RH to 0% RH. An absorption-desorption isotherm is obtained by plotting a value of weight change in each humidity. […] When the anhydrate crystal transforms to hydrate crystal by humidity, the results of measurement indicate transformation humidity and amount of crystal water. The dynamic vapor sorption measurement of the crystalline solid obtained in each example was carried out. The sample of about 18.0 mg was measured and transferred to a sample pan, and it was measured. The measurement condition is shown below. • Device: DVS Advantage made by Surface Measurement Systems LTD. • Measurement point: each 5% from RH95% to RH0%. • Temperature: 25° C. (Method of Measuring the Karl Fischer Method) The results of a dynamic vapor sorption measurement of the type I crystal D obtained in Example 6-1 were shown in FIG. 7 and Table 7. Dynamic vapor sorption measurement can be occurred errors within the range of ±0.5%. An increased amount of water (%) represents an increased amount of the type I crystal at 0% RH.

A short description of series [5]: Solid stability test of crystalline solid. The note with it: −20±5° C. or 5±5° C., light shielding, double polyethylene bag in metal can, 0, 3, 6, 9, 12 months. The procedure:
The type I crystal D about 1 g was put in a polyethylene bag and tightened with a convex. This bag was further put in a polyethylene bag and tightened with a convex in the same way. The above sample of the same storage conditions was put together in a metal can as a stability evaluation sample. The storage conditions, storage period and test items are as follows.
• Temperature: −20±5° C. or 5±5° C. • Light shielding • Package form: double polyethylene bag, convex, metal can • Storage period: 0, 3, 6, 9, 12 months (Measurement)
Using the type I crystal D stored at the above storage conditions and storage period, after viewing the change in appearance, the contents of the compound (IA) and the related substances were measured by the following method.
Step 1: Preparation of a Sample Solution
About 40 mg of the sample was weighed precisely, and dissolved in a sample dilution solvent to be exactly 25 mL. • 5 mmol/L phosphate buffer/liquid chromatography acetonitrile mixture (9:1) was used as the above sample dilution solvent was used. Herein, water: 0.05 mol/L sodium dihydrogen phosphate test solution: 0.05 mol/L disodium hydrogen phosphate reagent mixture=18:1:1 (pH is about 7.1) was used as a phosphate buffer. Step 2: HPLC Measurement of Related Substances
The above sample solution was measured by liquid chromatography under the following test condition to measure peak areas of the compound (IA) and its related substances by the automatic integration method.
• Column: YMC-UltraHT Pro C18, φ2.0×100 mm, 2 μm, YMC • Column temperature: 35° C. • UV detection wavelength: 261 nm • Mobile phase: [A] […]
• Flow rate: 0.5 mL per minute (a retention time of the compound (IA) about 5 minutes) The amount of related substances in the sample was determined by using the following formula. […]
The above standard solution and sample solution was measured by liquid chromatography under the following test condition to determine a peak area of the compound (IA) by an automatic integration method. […]
The content of related substances in the sample was determined using the following formula. […]

On to `CC(C)(O/N=C(\C(=O)N[C@@H]1C(=O)N2C(C(=O)[O-])=C(C[N+]3(CCNC(=O)c4ccc(O)c(O)c4Cl)CCCC3)CS[C@H]12)c1csc(N)n1)C(=O)O` (stereo in doubt) [compound (IA)], for which, in series [1], the pKa1 is 4.2 and the pKa2 is 7.2. Besides, in series [2], the solubility in water entry is “very low”.
In the case of `CC(C)(O/N=C(\C(=O)N[C@@H]1C(=O)N2C(C(=O)[O-])=C(C[N+]3(CCNC(=O)c4ccc(O)c(O)c4Cl)CCCC3)CS[C@H]12)c1csc(N)n1)C(=O)O` [compound 9], the solubility (in general, the concentration that dissolves in the medium under given conditions) in series [3] (dextrose solution, saline or isotonic) is at least 100 mg/mL; in series [3] (saline, saline or isotonic), at least 100 mg/mL; in series [3] (water for injection, water), at least 100 mg/mL.
For `CC(C)(O/N=C(\C(=O)N[C@@H]1C(=O)N2C(C(=O)[O-])=C(C[N+]3(CCNC(=O)c4ccc(O)c(O)c4Cl)CCCC3)CS[C@H]12)c1csc(N)n1)C(=O)O` [type I crystal D], the “Increased amount of water (%)” value worked out at 0.00% in series [4] (Relative humidity 0% RH, relative to type I crystal at 0% RH); 3.33% in series [4] (Relative humidity 5% RH, relative to 0% RH); 5.26% in series [4] (Relative humidity 10% RH, relative to 0% RH); 7.70% in series [4] (Relative humidity 15% RH, relative to 0% RH); 10.53% in series [4] (Relative humidity 20% RH, relative to 0% RH); 11.67% in series [4] (Relative humidity 25% RH, relative to 0% RH). Further, the “Increased amount of water (%)” value in series [4] (Relative humidity 30% RH, relative to 0% RH) is 12.28%; in series [4] (Relative humidity 35% RH, relative to 0% RH) it was 12.75%; in series [4] (Relative humidity 40% RH, relative to 0% RH) it was 13.16%; in series [4] (Relative humidity 45% RH, relative to 0% RH), 13.54%; in series [4] (Relative humidity 50% RH, relative to 0% RH) it was 13.91%; in series [4] (Relative humidity 55% RH, relative to 0% RH) it was 14.25%. The “Increased amount of water (%)” value came out at 14.55% in series [4] (Relative humidity 60% RH, relative to 0% RH); 14.93% in series [4] (Relative humidity 65% RH, relative to 0% RH); 15.26% in series [4] (Relative humidity 70% RH, relative to 0% RH); 15.55% in series [4] (Relative humidity 75% RH, relative to 0% RH); 15.82% in series [4] (Relative humidity 80% RH, relative to 0% RH); 16.08% in series [4] (Relative humidity 85% RH, relative to 0% RH). The “Increased amount of water (%)” value in series [4] (Relative humidity 90% RH, relative to 0% RH) stood at 16.34%; in series [4] (Relative humidity 95% RH, relative to 0% RH), 16.60%. Further, the “change in appearance on storage” value in series [5] is recorded as “no change in the appearance”. Also, the “increase of content of related substances on storage (HPLC)” value in series [5] was “not observed”. For the same compound, the “solid storage stability (overall)” value in series [5] is “very stable”.
